The values that follow come from patent publication US20090143279A1 (priority 2007, published 2009).

Read-outs that look alike come from different tables or passages of the source.

The subject of test [1] is mitochondrial membrane potential. It is filed as cell-based, mouse.
In test [2] the test system is reactive oxygen species. It is filed as cell-based, mouse.
Test [3] deals with nuOXPHOS transcripts. It is filed as cell-based, mouse.
The test system of test [4] is cytochrome c. It is filed as cell-based, mouse.
For test [5], the system named is cellular dehydrogenase activity.
In test [6] the test system is OXPHOS gene expression. It is filed as cell-based, mouse.
The subject of test [7] is mtOXPHOS transcripts. It is filed as cell-based, mouse.
For test [8], the system named is C2C12 myotubes.
[9] abbreviates: composite Z-score vs DMSO wells, Conc 20 μM.
The mark [10] stands for this setting: normalized composite Z-score vs mock-treated (DMSO) wells, Conc 20 μM.
[11] abbreviates: composite Z-score vs DMSO, Conc 20 μM.
Setting [12] is: composite Z-score vs mock-treated (DMSO) wells, Conc 20 μM.
The mark [13] stands for this setting: Conc 20 μM, normalized score vs mock-treated (DMSO) wells.
Setting [14] is: 20 μM, composite Z-score vs DMSO.
Where [15] appears, read: 20.6 μM, composite Z-score vs DMSO.

Chain of cytochrome c (P62897 whole entry): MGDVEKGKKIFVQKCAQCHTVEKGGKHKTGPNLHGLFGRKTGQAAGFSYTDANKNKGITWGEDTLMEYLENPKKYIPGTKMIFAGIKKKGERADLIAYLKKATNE

As for `CCn1cc(C(=O)O)c(=O)c2cnc(N3CCNCC3)nc21` [pipemidic acid], the ΔΨm in test [1] (setting [9]) was −0.736. The ROS in test [2] (setting [9]) stood at 0.010. In test [3] (setting [9]), this molecule showed a nucOX of 0.264. Also, the cyt c in test [4] is reported as 0.101; in test [4] (setting [9]), 0.140. For the same molecule, the MTT in test [5] (setting [9]) was −0.367. In test [6] (setting [9]), the GE-HTS stood at 0.045. In addition, the mitoOX in test [7] (setting [9]) was −0.333. The same molecule showed a Viability in test [8] (setting [9]) of −0.716.

In test [1] (setting [10]), `CCCCC[C@H](CC(=O)O)C(=O)O` [nonic acid] showed a ΔΨm of −0.931. Moreover, in test [2] (setting [10]), the ROS came out at 1.211. This molecule showed a nucOX in test [3] (setting [10]) of −0.104. This molecule also came in with a cyt c in test [4] (setting [10]) of −0.133. The same molecule came in with an MTT in test [5] (setting [10]) of −1.857. Moreover, the GE-HTS in test [6] (setting [10]) is listed as −0.080. Besides, the mitoOX in test [7] (setting [10]) turned out to be 0.061. In addition, the Viability in test [8] (setting [10]) was −1.043.

In the case of `CC(=O)O[C@@H]1C[C@H]2C(C)(C)[C@H](O)C[C@H](O)[C@]2(C)[C@H]2CC[C@@]3(C)[C@H](c4ccoc4)OC(=O)[C@H]4O[C@]43[C@@]21C` [1,3-dideacetylkhivorin], in test [1] (setting [11]), the ΔΨm amounted to 0.051. This molecule showed an ROS in test [2] (setting [11]) of 0.963. The same molecule returned a nucOX in test [3] (setting [11]) of −0.349. The same molecule displayed a cyt c in test [4] (setting [11]) of 0.887. This molecule returned an MTT in test [5] (setting [11]) of −0.622. In test [6] (setting [11]), this molecule came in with a GE-HTS of −0.693. In test [7] (setting [11]), this molecule gave a mitoOX of −1.275. The same molecule gave a Viability in test [8] (setting [11]) of 0.507.

The molecule `CC(=O)C[C@H]1CCCCN1` [pelletierine] gave a ΔΨm in test [1] (setting [10]) of −0.120. The molecule further registered an ROS in test [2] (setting [10]) of −0.071. The molecule also displayed a nucOX in test [3] (setting [10]) of 0.077. This molecule registered a cyt c in test [4] (setting [10]) of 0.349. In addition, the MTT in test [5] (setting [10]) is listed as −0.341. This molecule gave a GE-HTS in test [6] (setting [10]) of 0.036. The molecule also showed a mitoOX in test [7] (setting [10]) of −0.077. For the same molecule, the Viability in test [8] (setting [10]) is −0.418.

Turning to `Cc1cc(=O)c2c(O)c3c(cc2o1)OCC(C)CC3` (centres unmarked) [dihydroptaeroxylin], in test [1] (setting [10]), the ΔΨm is given as −0.192. The same molecule registered an ROS in test [2] (setting [10]) of 0.151. Further, the nucOX in test [3] (setting [10]) is on record as −0.410. In test [4] (setting [10]), this molecule had a cyt c of 0.403. This molecule also returned an MTT in test [5] (setting [10]) of −0.526. In addition, the GE-HTS in test [6] (setting [10]) is on record as −0.581. The molecule also yielded a mitoOX in test [7] (setting [10]) of −0.787. The molecule further returned a Viability in test [8] (setting [10]) of 0.605.

For “3-deoxo-3beta-acetoxydeoxydihydrogedunin”, the ΔΨm in test [1] (setting [12]) is given as 1.215. Moreover, the ROS in test [2] (setting [12]) worked out at 1.249. In test [3] (setting [12]), this molecule returned a nucOX of −0.791. Also, the cyt c in test [4] (setting [12]) is on record as 0.398. The molecule also had an MTT in test [5] (setting [12]) of −1.633. This molecule also yielded a GE-HTS in test [6] (setting [12]) of −0.742. Further, in test [7] (setting [12]), the mitoOX was −0.559. In test [8] (setting [12]), this molecule displayed a Viability of 1.066.

With `CCCCCC(=O)Cc1cc(O)cc(O)c1C(=O)Oc1cc(CC(=O)CCCCC)c(C(=O)O)c(OC)c1` [arthonioic acid], the ΔΨm in test [1] (setting [11]) is given as −0.493. In test [2] (setting [11]), the ROS is given as 1.167. Moreover, the nucOX in test [3] (setting [11]) is reported as −0.590. The same molecule gave a cyt c in test [4] (setting [11]) of −0.019. In addition, the MTT in test [5] (setting [11]) is −2.597. Further, in test [6] (setting [11]), the GE-HTS is listed as −0.668. The molecule also had a mitoOX in test [7] (setting [11]) of −0.657. The Viability in test [8] (setting [11]) was −0.413.

Turning to `CC1=CC(=O)C2=C(C)C[C@H](O)[C@@H]3[C@H](OC(=O)[C@H]3C)[C@H]12` [austricine], the “ΔΨm (composite Z-score)” value in test [1] (setting [13]) is recorded as −0.711. Further, the “ROS (composite Z-score)” value in test [2] (setting [13]) is listed as 0.665. In test [3] (setting [13]), the “nucOX (composite Z-score)” value was 0.081. Moreover, in test [4] (setting [13]), the “cyt c (composite Z-score)” value is 0.842. The “MTT (composite Z-score)” value in test [5] (setting [13]) is listed as −1.268. The “GE-HTS (composite Z-score)” value in test [6] (setting [13]) was found to be 0.165. Also, in test [7] (setting [13]), the “mitoOX (composite Z-score)” value amounted to 0.349. In test [8] (setting [13]), the “Viability (composite Z-score)” value was −0.394.

Regarding `Nc1ccc(C(=O)NCC(=O)O)cc1` [aminohippuric acid], the results for the ΔΨm in test [1] (setting [14]) and in test [1] (setting [15]) were −0.606 and −0.343, respectively. For the same molecule, the ROS in test [2] (setting [14]) is given as −0.310; in test [2] (setting [15]), 0.426. In addition, the nucOX was determined as 0.160 in test [3] (setting [14]) and 0.976 in test [3] (setting [15]). The figures for the cyt c in test [4] (setting [14]) and in test [4] (setting [15]) were 0.243 and 0.320, respectively. The MTT in test [5] (setting [14]) is −0.983; in test [5] (setting [15]), −0.126. Also, the GE-HTS in test [6] (setting [14]) came out at 0.220; in test [6] (setting [15]), 0.568. Further, the results for the mitoOX in test [7] (setting [14]) and in test [7] (setting [15]) were 0.304 and −0.395, respectively. Moreover, the Viability in test [8] (setting [14]) was 0.597; in test [8] (setting [15]), −0.266.

In test [1] (setting [9]), `Oc1c(Cl)cc(Cl)c2cccnc12` [chloroxine] came in with a ΔΨm of 1.120. Moreover, the ROS in test [2] (setting [9]) is −2.934. This molecule came in with a nucOX in test [3] (setting [9]) of −0.461. In test [4] (setting [9]), the cyt c is listed as −0.800. The MTT in test [5] (setting [9]) is on record as −2.014. In test [6] (setting [9]), this molecule gave a GE-HTS of −1.089. The mitoOX in test [7] (setting [9]) is listed as −2.181. For the same molecule, the Viability in test [8] (setting [9]) is recorded as −1.392.
